One data set concerns φX174 Form I DNA. In words: φX174 supercoiled DNA cleavage, agarose gel. It counts as biochemical. The conditions noted are these: for DNA cleavage potency: pH 8.5, 1000 and 100 μM. How it is done: The ethereal solution of Compound 40 produced by the LiAlH4 reduction of Compound 21 (39 mg, 0.10 mmol) was evaporated in vacuo to dryness and the residue dissolved in THF (4 mL) to give a 25 mM solution of Compound 40, assuming complete conversion of Compound 21. […]
Thus, a vial containing a 50 micromolar per base pair solution […] of the same buffer solution and 2.0 microliters of a 5.0 millimolar ethanol solution of Compound 40.
[…] A 2.0 microliter portion of glycerol loading buffer solution containing bromothymol blue indicator was added to each vial. A 10 microliter aliquot was then drawn from each. Gel electrophoresis analysis of the aliquots was performed using a 1.0 percent agarose gel with ethidium bromide run at 115 volts for 1 hour. DNA cleavage was indicated by the formation of nicked relaxed circular DNA (form II) or linearized DNA (form III), which was detected by visual inspection of the gel under 310 nanometer ultraviolet light using ethidium bromide.

A short description of a further data set: Chemical stability. Format: physicochemical.
For data set [1], the system named is NHDF normal human dermal fibroblasts. As to the kind of experiment: cells. It counts as cell-based. The conditions noted are these: for IC50: NHDF, read-out: Range of Average IC50 Values, NHDF. As for the experimental part:
(§1) In addition to the screening already discussed, several of the before-described compounds and chimeras were screened against several or all of a panel of ten to twenty-five cancerous cell lines as target cells and seven "normal" cell preparations. This screening utilized a sulforhodamine B cytotoxidity assay as discussed below.
(§2) IC50 values; i.e., the concentration of Compound required to kill one-half of the treated cells, were then calculated.
NHDF Normal human dermal fibroblasts

In a further data set the test system is cancer cell lines. In words: cells. It counts as cell-based. The conditions noted are these: Average data obtained from 5~10 cell lines; read-out: IC50 (average). As for the experimental part: as §1
SULFORHODAMINE B CYTOTOXICITY ASSAY
a. Stock drug solutions were prepared by dissolving drug in the appropriate solvent (determined during chemical characterization studies) and sterile filtering the drug-solvent solution through a sterile 0.2μ filter unit. An aliquot was taken from each filtered drug solution and the O.D. was measured to determine the drug concentration.
f. Incubate (37° C., 5-10 percent CO2 in humidified incubator) plates for a total of 72 hours. Check plates at 24 hour intervals microscopically for signs of cytotoxicity.
as §2
All other cells or cell lines were obtained from the American Type Culture Collection (ATCC) (all except CHO cells are human or mouse cancer cell lines as described by the ATC).
Tables 1 and 2 herein below provide average IC50 data from five to all ten of the above cancer cells lines for fused ring enediyne compounds disclosed herein. Those tables provide a generic structure and a description of the R group of that generic structure for each compound. Compound numbers as noted hereinbefore are also provided. Table 3 contains data for two fused-ring enediyne compounds (Compounds 47 and 120) as well as data for six chimers. Table 4 contains cancer cell and noraml cell cytotoxicity data for one select fused ring enediyne, Compound 153 against a number of "normal" cell preparations and tumor cell lines. Table 5 contains cancer cell and normal cell cytotoxicity data for another fused ring enediyne, Compound 250 against a similar panel of cells.

Data set [2] deals with Capan-1 pancreatic carcinoma cells. In words: Sulforhodamine B cytotoxicity, Capan-1. Format: cell-based. As for the experimental part:
as §1, §2

Data set [3] relates to MCF-7(ADR) breast carcinoma cells. In words: Sulforhodamine B cytotoxicity, MCF-7/ADR. It counts as cell-based. The conditions noted are these: Homo sapiens, NCI/ADR-RES, Adriamycin resistant. How it is done:
as §1, §2

Data set [4] concerns HL-60 promyeocytic leukemia cells. In words: Sulforhodamine B cytotoxicity, HL-60. It counts as cell-based. As for the experimental part: as §1, §2
In another data set the test system is SK-Mel-28 melanoma cells. As to the kind of experiment: Sulforhodamine B cytotoxicity, SK-Mel-28. Format: cell-based. As for the experimental part:
as §1, §2

The test system of data set [5] is MOLT-4 (Leukemia) cell line. In words: cells. Format: cell-based. As for the experimental part: as §1, §2
Data set [6] deals with H-322 lung carcinoma cells. In words: Sulforhodamine B cytotoxicity, H-322. Format: cell-based. As to conditions: Table 7, H-322. As for the experimental part:
as §1, §2

Data set [7] deals with CHO Chinese hamster ovary cells. In words: Sulforhodamine B cytotoxicity, CHO. It counts as cell-based. The conditions noted are these: Table 7, CHO; read-out: Cytotoxicity (IC50). How it is done: as §1, §2
Data set [8] concerns Ovcar-3 ovarian carcinoma cells. As to the kind of experiment: Sulforhodamine B cytotoxicity, Ovcar-3. Format: cell-based. The conditions noted are these: Table 7, Ovcar-3; read-out: Cytotoxicity (IC50). How it is done: as §1, §2
Data set [9] concerns HT-29 colon carcinoma cells. In words: Sulforhodamine B cytotoxicity, HT-29. It counts as cell-based. The conditions noted are these: Table 7, HT-29; 4320 min; read-out: Cytotoxicity (IC50). As for the experimental part:
as §1, §2

The subject of data set [10] is P-388 mouse lymphoma cells. In words: Sulforhodamine B cytotoxicity, P-388. It counts as cell-based. As to conditions: Table 7, P-388; read-out: Cytotoxicity (IC50). How it is done: as §1, §2
For data set [11], the system named is MCF-7 breast carcinoma cells. As to the kind of experiment: Sulforhodamine B cytotoxicity, MCF-7. Format: cell-based. The conditions noted are these: Table 7, MCF-7; 4320 min; read-out: Cytotoxicity (IC50). How it is done: as §1, §2
The subject of data set [12] is UCLA P-3 non-small cell lung carcinoma cells. In words: Sulforhodamine B cytotoxicity, UCLA-P3. It counts as cell-based, human. The conditions noted are these: Table 7, UCLA-P3; read-out: Cytotoxicity (IC50). How it is done: as §1, §2
UCLA P-3 Dr. D. Morton, University of California, […]

Where [13] appears, read: 5.0 mM, pH 8.5, 36 hours, 37° C.
Setting [14] is: Homo sapiens, CAPAN-1, Capan-1, read-out: IC50.
[15] abbreviates: Homo sapiens, HL-60, HL-60, read-out: IC50.
Setting [16] is: Homo sapiens, SK-MEL-28, SK-Mel-28, read-out: IC50.
[17] abbreviates: 10 mM, pH 8.5, 48 hours, 37° C.

Entries after “also recorded” stand apart in the source; their conditions may differ. Read-outs that look alike come from different tables or passages of the source.

Here are results for 18 compounds from patent US5281710A, “Dynemicin analogs: synthesis, methods of preparation and use” (The Scripps Research Institute, priority 1992, dated 1994).

For orientation: IC50 means the midpoint of a concentration-inhibition curve.

Turning to `O=C(Oc1ccccc1)N1c2cc(O)ccc2C23OC24CCCC3(O)C#C/C=C\C#CC14` (stereo not drawn) [Compound 42], the “cleavage of double stranded DNA” value with φX174 Form I DNA (2 mM) is reported as “shown to cause cleavage of double stranded DNA”. In addition, the DNA cleavage result in the data set with φX174 Form I DNA (5 mM, pH 8.0, 24 hours) is listed as “significant DNA cleavage”; with φX174 Form I DNA (setting [13]), “significant DNA cleaving action”. Besides, in “Chemical stability”, the chemical stability entry is “led to decomposition”.
As to `N[C@@H](Cc1ccc(N(CCCl)CCCl)cc1)C(=O)O` [Melphelan], the IC50 in data set [1] (Homo sapiens) was 100 µM.
Regarding `COc1ccc2c(c1)N(C(=O)Oc1ccccc1)[C@H]1C#C/C=C\C#C[C@]3(O)CCC[C@]14O[C@]243` (relative stereo) [Compound 41], the DNA cleavage result in the data set on φX174 Form I DNA (2 mM, pH 5.0) is reported as “also cleaved DNA”. The IC50 with cancer cell lines was determined as 20 µM. For the same compound, in “Chemical stability”, the chemical stability entry is “reasonable stability under neutral and basic conditions; also recorded: cyclized rapidly under acidic conditions”.
Turning to `N.N.[Cl][Pt][Cl]` [Cis-Platin], the IC50 in data set [1] (control drugs) came to 50 µM.
Consider `O=C(OCCS(=O)(=O)c1ccccc1)N1c2ccccc2[C@@]23O[C@]24CCC[C@H]3C#C/C=C\C#C[C@H]14` [(+)-45], for which the DNA cleavage potency entry in the data set on φX174 Form I DNA is “comparable potencies”. The IC50 in data set [2] (setting [14]) is 0.39 µM; in data set [3], 0.78 µM; in data set [4] (setting [15]), greater than 0.098 µM; with SK-Mel-28 melanoma cells (setting [16]), 6.3 µM.
In the case of `OC12CCCC3C#Cc4ccccc4C#CC1Nc1ccccc1C32O` (stereo not drawn) [Compound 76b], in the data set on φX174 Form I DNA (setting [17]), the DNA cleavage result was “converted supercoiled .phi.X174 form I DNA”. For the same compound, the chemical stability result in the data set “Chemical stability” is “cyclized spontaneously at 25 °C in the presence of 1,4-cyclohexadiene”.
With `CN(Cc1cnc2nc(N)nc(N)c2n1)c1ccc(C(=O)N[C@@H](CCC(=O)O)C(=O)O)cc1` [Methotrexate], in data set [1] (Homo sapiens, control drugs), the IC50 was 50 µM.
In the case of `CC(COC(=O)N1c2ccccc2C23OC24CCCC3C#CC=CC#CC14)S(=O)(=O)c1ccccc1` (stereo not drawn) [Compound 428], the DNA cleavage entry with φX174 Form I DNA (5.0 mM, pH 8.5 and 9.0, 48 hours, 37° C.) was “greatly reduced in vitro DNA cleaving ability”. Moreover, the IC50 is 6.3 µM in [2] (Table 7, Capan-1, read-out: Cytotoxicity (IC50)); 1 µM in data set [5] (Table 7, Molt-4, read-out: Cytotoxicity (IC50)); 1.6 µM in data set [4] (Table 7, HL-60, read-out: Cytotoxicity (IC50)); less than 100 µM in the data set with SK-Mel-28 melanoma cells (Table 7, SK-Mel-28, read-out: Cytotoxicity (IC50)); 13 µM in [8]; 13 µM in data set [9]. In addition, the IC50 in data set [10] was 1.6 µM; in data set [11] it was less than 100 µM; in [12], 13 µM. For the same compound, the CC50 in [1] (Table 7, NHDF, read-out: Cytotoxicity (IC50)) was less than 100 µM; in data set [7], less than 100 µM. In addition, the “Cytotoxicity (IC50)” value in [6] was “Non-Toxic”.
Consider `COC12C#C/C=C\C#CC3NC4=CC(=O)C=CC45OC15C3(O)CCC2` (stereo not drawn) [Compound 58], for which the DNA cleavage result in the data set with φX174 Form I DNA (5 mM, pH 8.0, 24 hours) was “diminished activity against DNA”. For the same compound, the chemical stability entry in the data set “Chemical stability” is recorded as “stable molecules”.
Consider `OC12CCCC3C#Cc4cc5ccccc5cc4C#CC1Nc1ccccc1C32O` (stereo not drawn) [Compound 87b], for which the DNA cleavage result in the data set on φX174 Form I DNA (setting [17]) is reported as “converted supercoiled .phi.X174 form I DNA”. Moreover, the chemical stability result in “Chemical stability” is recorded as “stable in the presence of 1,4-cyclohexadiene, but cycloaromatized at elevated temperature (65° C., two hours)”.
Regarding `O=C(OCCS(=O)(=O)c1ccccc1)N1c2ccccc2[C@]23O[C@@]24CCC[C@@H]3C#C/C=C\C#C[C@@H]14` [(-)-45], the DNA cleavage potency entry in the data set on φX174 Form I DNA was “comparable potencies”. Also, the IC50 in data set [2] (setting [14]) was found to be 1.6 µM; in data set [5] (Homo sapiens, MOLT-4, Molt-4 leukemia cell line, read-out: IC50) it was 0.1 µM; in [3] it was 1.6 µM; in data set [4] (setting [15]), 0.78 µM; in the data set on SK-Mel-28 melanoma cells (setting [16]) it was 6.3 µM.
Turning to `O=C(Oc1ccccc1)N1c2cc(OCc3ccccc3[N+](=O)[O-])ccc2C23OC24CCCC3(O)C#C/C=C\C#CC14` (stereo not drawn) [Compound 43], the DNA cleavage result in the data set on φX174 Form I DNA (setting [13]) is on record as “inert”. For the same compound, the chemical stability entry in the data set “Chemical stability” was “rather labile”.
Consider `COC1=C(C(=O)O)[C@H](C)[C@@]23O[C@]24c2cc(O)c5c(c2N[C@H]3C#C/C=C\C#C[C@H]14)C(=O)c1c(O)ccc(O)c1C5=O` [Dynemicin A], for which the IC50 in data set [1] (Homo sapiens, control drugs) amounted to 0.01 µM.
Consider `COC12C#C/C=C\C#CC3N(C(=O)Oc4ccccc4)C4=CC(=O)C=CC45OC15C3(O)CCC2` (stereo not drawn) [Compound 62], for which the DNA cleavage result in the data set with φX174 Form I DNA (5 mM, pH 8.0, 24 hours) is “diminished activity against DNA”. Further, the chemical stability entry in “Chemical stability” is on record as “stable molecules”.
Regarding `CC(=O)O[C@H]1C(=O)[C@@]2(C)[C@H]([C@H](OC(=O)c3ccccc3)[C@]3(O)C[C@H](OC(=O)[C@H](O)[C@@H](NC(=O)c4ccccc4)c4ccccc4)C(C)=C1C3(C)C)[C@]1(OC(C)=O)CO[C@@H]1C[C@@H]2O` [Taxol], the IC50 in data set [1] (Homo sapiens, control drugs) came to 0.01 µM.
For the compound `C1#CC2Nc3ccccc3C34OC23CCCC4C#C/C=C\1` (stereo not drawn) [Compound 40], the DNA cleavage entry with φX174 Form I DNA (5 mM, pH 8.0, 24 hours) is “significant DNA cleavage”; in the data set on φX174 Form I DNA (pH 7.4 phosphate, 20 volume percent THF, 24 hours, 100-5000 μM), “cleavage”. Besides, the chemical stability result in “Chemical stability” was “too labile for isolation; also recorded: decomposed at that temperature”.
Consider `C1#CC2Nc3ccccc3C34OC23CCCC4C#Cc2ccccc21` (stereo not drawn) [Compound 76a], for which the chemical stability result in the data set “Chemical stability” was “stable at 25 °C”.
Take `O=C1C=CC23OC24C2(O)C#C/C=C\C#CC(N(C(=O)Oc5ccccc5)C3=C1)C4(O)CCC2` (stereo not drawn) [Compound 54]: the DNA cleaving activity result in the data set with φX174 Form I DNA is “exhibited DNA cleaving activity”. The DNA cleavage result is listed as “significant DNA cleavage” in the data set with φX174 Form I DNA (5 mM, pH 8.0, 24 hours) and “exhibited DNA cleaving capability” with φX174 Form I DNA (setting [13]). Besides, in “Chemical stability”, the chemical stability entry is reported as “sensitive but stable molecule under neutral conditions”.
